Data taken from patent publication US8076487B2, “Pyridone derivative and herbicide” (Kumiai Chemical Industry Co., Ltd., priority 2006, dated 2011).

How the values were obtained:
Format in all cases: in vivo
[1] = test system: Japanese bulrush (Scirpus juncoides Roxb.); experiment: Test Example 1: herbicidal effect by soil application to paddy field; conditions: paddy field soil application; active ingredient 1,000 g per 1 hectare; wettable powder added dropwise to water surface the day after sowing; examined on the 21st day after application
How it was run: (§1)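 Plants were sown in flooded (3 cm) paddy soil and evaluated for herbicidal effect 21 days after soil application in a greenhouse.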

[2] = test system: early watergrass (Echinochloa oryzicola Vasing); experiment: as above; conditions: paddy field soil application; active ingredient 1,000 g per 1 hectare; wettable powder added dropwise to water surface the day after sowing; examined on the 21st day after application
How it was run: as §1

[3] = test system: heartshape false pickerelweed (Monochoria vaginalis (Burm.f.) C.Presl); experiment: as above; conditions: paddy field soil application; active ingredient 1,000 g per 1 hectare; wettable powder added dropwise to water surface the day after sowing; examined on the 21st day after application
How it was run: as §1

[4] = test system: velvetleaf (Abutilon theophrasti medicus); experiment: Test Example 3: herbicidal effect by application to upland field (foliage treatment); conditions: 14th day after application; for herbicidal effect (index), Velvetleaf: foliage treatment, plants grown two weeks, 1,000 g active ingredient per hectare; for herbicidal effect, Velvetleaf: foliage treatment, 1,000 g active ingredient per 1 hectare, greenhouse
How it was run: (§2)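 Seeds went into pots of field soil and grew under glass for two weeks. The whole plant was then sprayed from above with diluted wettable powder delivering 1,000 g/ha of active ingredient. Plants stayed in the greenhouse, and injury was graded against a standard 14 days after spraying.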

[5] = test system: green foxtail (Setaria viridis (L.) P. Beauv.); experiment: as above; conditions: 14th day after application; for herbicidal effect (index), Green Foxtail: foliage treatment, plants grown two weeks, 1,000 g active ingredient per hectare; for herbicidal effect, Green Foxtail: foliage treatment, 1,000 g active ingredient per 1 hectare, greenhouse
How it was run: as §2

[6] = test system: barnyardgrass (Echinochloa crus-galli (L.) P. Beauv. var. crus-galli); experiment: as above; conditions: 14th day after application; for herbicidal effect (index), Barnyardgrass: foliage treatment, plants grown two weeks, 1,000 g active ingredient per hectare; for herbicidal effect, Barnyardgrass: foliage treatment, 1,000 g active ingredient per 1 hectare, greenhouse
How it was run: as §2

[7] = test system: slender amaranth (Amaranthus viridis L.); experiment: as above; conditions: 14th day after application; for herbicidal effect (index), Slender Amaranth: foliage treatment, plants grown two weeks, 1,000 g active ingredient per hectare; for herbicidal effect, Slender Amaranth: foliage treatment, 1,000 g active ingredient per 1 hectare, greenhouse
How it was run: as §2

[8] = test system: velvetleaf (Abutilon theophrasti medicus); experiment: Test Example 2: herbicidal effect by soil application to upland field; conditions: soil surface spray, upland field soil, 1,000 g active ingredient per hectare, 21st day after application
How it was run: (§3)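 Pre-emergence soil test: seeds sown in pots of field soil, then wettable-powder formulation sprayed on soil surface at 1,000 g active ingredient per hectare in 1,000 L water per hectare. Plants grown in greenhouse; herbicidal effect scored on a standard scale at day 21.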

[9] = test system: green foxtail (Setaria viridis (L.) P. Beauv.); experiment: as above; conditions: soil surface spray, upland field soil, 1,000 g active ingredient per hectare, 21st day after application
How it was run: as §3

[10] = test system: barnyardgrass (Echinochloa crus-galli (L.) P. Beauv. var. crus-galli); experiment: as above; conditions: soil surface spray, upland field soil, 1,000 g active ingredient per hectare, 21st day after application
How it was run: as §3

[11] = test system: slender amaranth (Amaranthus viridis L.); experiment: as above; conditions: soil surface spray, upland field soil, 1,000 g active ingredient per hectare, 21st day after application
How it was run: as §3

Row | Compound | herbicidal effect, Scirpus juncoides Roxb. [1] | herbicidal effect, Echinochloa oryzicola Vasing [2] | herbicidal effect, Monochoria vaginalis (Burm. f.) C. Presl [3] | herbicidal effect (index), Velvetleaf [4] | herbicidal effect (index), Green Foxtail [5] | herbicidal effect (index), Barnyardgrass [6] | herbicidal effect (index), Slender Amaranth [7] | herbicidal effect (index), Velvetleaf [8] | herbicidal effect (index), Green Foxtail [9] | herbicidal effect (index), Barnyardgrass [10] | herbicidal effect (index), Slender Amaranth [11] | herbicidal effect, Velvetleaf [4] | herbicidal effect, Green Foxtail [5] | herbicidal effect, Barnyardgrass [6] | herbicidal effect, Slender Amaranth [7]
1 | N#CCCn1c(C(F)(F)F)ccc(C(=O)C2=C(O)CCCC2=O)c1=O [I-44] | 5 (90% or more of herbicidal effect and crop phytotoxicity) | 5 (90% or more of herbicidal effect and crop phytotoxicity) | 5 (90% or more of herbicidal effect and crop phytotoxicity) | 5 (90% or more of herbicidal effect and crop phytotoxicity) | 5 (90% or more of herbicidal effect and crop phytotoxicity) | 5 (90% or more of herbicidal effect and crop phytotoxicity) | 5 (90% or more of herbicidal effect and crop phytotoxicity) | 5 (90% or more of herbicidal effect and crop phytotoxicity) | 5 (90% or more of herbicidal effect and crop phytotoxicity) | 5 (90% or more of herbicidal effect and crop phytotoxicity) | 5 (90% or more of herbicidal effect and crop phytotoxicity) | – | – | – | –
2 | COCc1cc(-n2c(C(F)(F)F)ccc(C(=O)c3cnn(C)c3O)c2=O)ccc1F [IV-95] | 5 (90% or more of herbicidal effect and crop phytotoxicity) | 5 (90% or more of herbicidal effect and crop phytotoxicity) | 5 (90% or more of herbicidal effect and crop phytotoxicity) | – | – | – | – | 5 (90% or more of herbicidal effect and crop phytotoxicity) | 5 (90% or more of herbicidal effect and crop phytotoxicity) | 5 (90% or more of herbicidal effect and crop phytotoxicity) | 5 (90% or more of herbicidal effect and crop phytotoxicity) | 5 (90% or more of herbicidal effect and crop phytotoxicity) | 5 (90% or more of herbicidal effect and crop phytotoxicity) | 5 (90% or more of herbicidal effect and crop phytotoxicity) | 5 (90% or more of herbicidal effect and crop phytotoxicity)
3 | COCCCn1c(C(F)(F)F)ccc(C(=O)C2=C(O)C3CCC(C3)C2=O)c1=O (stereo not shown) [III-22] | 5 (90% or more of herbicidal effect and crop phytotoxicity) | 5 (90% or more of herbicidal effect and crop phytotoxicity) | 5 (90% or more of herbicidal effect and crop phytotoxicity) | – | – | – | – | 5 (90% or more of herbicidal effect and crop phytotoxicity) | 5 (90% or more of herbicidal effect and crop phytotoxicity) | 5 (90% or more of herbicidal effect and crop phytotoxicity) | 5 (90% or more of herbicidal effect and crop phytotoxicity) | 5 (90% or more of herbicidal effect and crop phytotoxicity) | 5 (90% or more of herbicidal effect and crop phytotoxicity) | 5 (90% or more of herbicidal effect and crop phytotoxicity) | 5 (90% or more of herbicidal effect and crop phytotoxicity)
4 | CCCS(=O)(=O)Oc1c(C(=O)c2ccc(C(F)(F)F)n(CC(F)(F)F)c2=O)cnn1C [IV-10] | 5 (90% or more of herbicidal effect and crop phytotoxicity) | 5 (90% or more of herbicidal effect and crop phytotoxicity) | 5 (90% or more of herbicidal effect and crop phytotoxicity) | – | – | – | – | 5 (90% or more of herbicidal effect and crop phytotoxicity) | 5 (90% or more of herbicidal effect and crop phytotoxicity) | 5 (90% or more of herbicidal effect and crop phytotoxicity) | 5 (90% or more of herbicidal effect and crop phytotoxicity) | 4 (70 to less than 90% of herbicidal effect and crop phytotoxicity) | 4 (70 to less than 90% of herbicidal effect and crop phytotoxicity) | 5 (90% or more of herbicidal effect and crop phytotoxicity) | 5 (90% or more of herbicidal effect and crop phytotoxicity)
5 | O=C(C1=C(O)C2CCC(C2)C1=O)c1ccc(C(F)(F)F)n(C2CC2)c1=O (stereo not shown) [III-5] | 5 (90% or more of herbicidal effect and crop phytotoxicity) | 5 (90% or more of herbicidal effect and crop phytotoxicity) | 5 (90% or more of herbicidal effect and crop phytotoxicity) | – | – | – | – | 5 (90% or more of herbicidal effect and crop phytotoxicity) | 5 (90% or more of herbicidal effect and crop phytotoxicity) | 5 (90% or more of herbicidal effect and crop phytotoxicity) | 5 (90% or more of herbicidal effect and crop phytotoxicity) | 5 (90% or more of herbicidal effect and crop phytotoxicity) | 5 (90% or more of herbicidal effect and crop phytotoxicity) | 5 (90% or more of herbicidal effect and crop phytotoxicity) | 5 (90% or more of herbicidal effect and crop phytotoxicity)
6 | CCOCCn1c(C(F)(F)F)ccc(C(=O)c2cnn(C)c2O)c1=O [IV-34] | 5 (90% or more of herbicidal effect and crop phytotoxicity) | 5 (90% or more of herbicidal effect and crop phytotoxicity) | 5 (90% or more of herbicidal effect and crop phytotoxicity) | – | – | – | – | 5 (90% or more of herbicidal effect and crop phytotoxicity) | 5 (90% or more of herbicidal effect and crop phytotoxicity) | 5 (90% or more of herbicidal effect and crop phytotoxicity) | 5 (90% or more of herbicidal effect and crop phytotoxicity) | 5 (90% or more of herbicidal effect and crop phytotoxicity) | 5 (90% or more of herbicidal effect and crop phytotoxicity) | 5 (90% or more of herbicidal effect and crop phytotoxicity) | 5 (90% or more of herbicidal effect and crop phytotoxicity)
7 | CCOCCn1c(C(F)(F)F)ccc(C(=O)C2=C(O)CCCC2=O)c1=O [I-32] | 5 (90% or more of herbicidal effect and crop phytotoxicity) | 5 (90% or more of herbicidal effect and crop phytotoxicity) | 5 (90% or more of herbicidal effect and crop phytotoxicity) | 5 (90% or more of herbicidal effect and crop phytotoxicity) | 5 (90% or more of herbicidal effect and crop phytotoxicity) | 5 (90% or more of herbicidal effect and crop phytotoxicity) | 5 (90% or more of herbicidal effect and crop phytotoxicity) | 5 (90% or more of herbicidal effect and crop phytotoxicity) | 5 (90% or more of herbicidal effect and crop phytotoxicity) | 5 (90% or more of herbicidal effect and crop phytotoxicity) | 5 (90% or more of herbicidal effect and crop phytotoxicity) | – | – | – | –
8 | O=C1CCCC(O)=C1C(=O)c1ccc(C(F)(F)F)n(-c2ccc([N+](=O)[O-])cc2)c1=O [I-88] | 5 (90% or more of herbicidal effect and crop phytotoxicity) | 5 (90% or more of herbicidal effect and crop phytotoxicity) | 5 (90% or more of herbicidal effect and crop phytotoxicity) | 5 (90% or more of herbicidal effect and crop phytotoxicity) | 5 (90% or more of herbicidal effect and crop phytotoxicity) | 5 (90% or more of herbicidal effect and crop phytotoxicity) | 5 (90% or more of herbicidal effect and crop phytotoxicity) | 5 (90% or more of herbicidal effect and crop phytotoxicity) | 5 (90% or more of herbicidal effect and crop phytotoxicity) | 5 (90% or more of herbicidal effect and crop phytotoxicity) | 5 (90% or more of herbicidal effect and crop phytotoxicity) | – | – | – | –
